Data: paper PMC9408991, “Antitumor Effects of a New Retinoate of the Fungal Cytotoxin Illudin M in Brain Tumor Models” (International Journal of Molecular Sciences, 2022)

Key:
[1] = test system: brain-derived cells (NE-4C, neurons, astrocytes, C6, U87, U251, MZ-54); assay: MTT assay, summary over brain-derived cells; assay type: cell-based; details: 48 h, read-out: IC50 (48 h) values, range over brain-derived cells
Method: Non-GBM cells (5 × 10^4 cells/mL, 100 µL/well) were grown in 96-well plates for 24 h. Then, they were treated with various concentrations of the test compounds or vehicle (DMSO, or EtOH) for 72 h at 37 °C. After the addition of 12.5 µL of a 0.5% MTT solution in PBS, the cells were incubated for 3 h at 37 °C so that the water-soluble MTT could be converted to formazan crystals. Then, the plates were centrifuged (300× g, 5 min, 4 °C), the medium withdrawn, and the formazan dissolved in 25 µL of DMSO containing 10% sodium dodecylsulfate (SDS) and 0.6% acetic acid for at least 2 h at 37 °C. In the case of the HL60 cells, after 2 h, the precipitate of formazan crystals was redissolved in a 10% solution of SDS in DMSO containing 0.6% acetic acid.
Adherently grown GBM cells were seeded at 5 × 10^4 cells/mL and floating spheres at 8 × 10^4 cells/mL in 100 µL/well and incubated as above for 48 or 72 h at 37 °C. Afterward, 10 µL of a 5 mg/mL MTT solution in PBS was added to the cells for 3 h at 37 °C. Then, the spheres were centrifuged shortly to collect the cells on the bottom of the plate, and the medium was removed by careful pipetting for both adherently grown and floating sphere GBM cultures. […] The absorbance of formazan (λ = 570 nm), and background (λ = 630 nm) was measured with a microplate reader (Tecan Spark, Tecan Deutschland GmbH, Crailsheim, Germany).

U87 glioma cells = assay: Apoptosis of U87 glioma cells (calcein/Annexin V-Cy3); assay type: cell-based, human; details: between 1 and 10 µM, 48 h
Method: Astroglia cells grown on poly-L-lysine-coated glass cover slips were fixed with 4% paraformaldehyde in PBS for 20 min at room temperature and then permeabilized with Triton X-100 (0.1% v/v in PBS; 5 min). Nonspecific antibodies were blocked by incubation with 3% FBS in PBS (room temperature, 1 h). α-GFAP antibody (rabbit, DAKO) was used in a dilution of 1:2000 and was visualized by anti-rabbit IgG Alexa 594 (1:1000). DAPI (4′,6-diamidino-2-phenylindole) was used for nuclei staining. Fluorescence images were captured manually on a Zeiss Axiovert 200 M microscope fitted with 20- to 60-fold zoom and a Zeiss AxioCam MRm digital camera. Further applied antibodies were tubulin III (Sigma T5076), used at a dilution of 1:1000, and Annexin V. Cy3.18 (Sigma A4963).
Figure 6 U87 glioma cells undergo apoptosis upon 48 h treatment with 10 µM of 2. Cells in the early stages of apoptosis show calcein (green)/Annexin V-Cy3 (red) double labeling. Scale bars: 50 µm; 20 µm for inserts.

[2] = Reactivity test with glutathione (enone absorption); assay type: physicochemical; details: 200 µM compound, glutathione in PBS, 2 h, rt
Method: In a cell-free activity assay, the reaction of 1 and 2 with glutathione was measured by the decreasing absorption at 340 nm (enone group). Then, 2 µL of the substances (10 mM in DMSO) was mixed with 98 µL glutathione solution ([…] in PBS) in a 96-well plate. The absorption was measured at 340 nm every 30 s for 2 h at rt (Tecan F200). All experiments were performed at least four times.
Figure 1 Time-resolved measurement of the absorption at 340 nm (enone group) of 200 µM 1, 2 or solvent (DMSO) mixed with 6.5 mM glutathione in phosphate-buffered saline (PBS). Data are means ± SD of at least four independent measurements every 30 s.

[3] = Stability in cell medium (DMEM) by HPLC; assay type: physicochemical; details: for Detected compound 2 in medium / Detected free 1 in the sample of 2 / Detected free retinoic acid in the sample of 2: sample of 2 in DMEM
Method: The stability of compound 2 in medium (DMEM) was investigated for the indicated times (Table S1). For the preparation of the calibration samples, stock solutions of the test compounds (1 mg /mL) in MeCN were initially made. The sample was diluted to 0.2 mg/mL in a mixture of MeCN/H2O (4:1), whereof 20 µL were taken and injected into the column. For HPLC analysis, a Prontosil 120-5-C18 ace EPS 5 µm column was applied, and MeCN/H2O + 0.1 % glacial acetic acid was used as eluent. Chromatography was run from 7030 to 9010 within 3 […]
Table S1. Stability of compound 2 in medium.
Sample Detected Compounds (in µM)

[4] = test system: retinoid-responsive elements (RARE); assay: RA reporter assay, F9 RARE-lacZ reporter cells; assay type: cell-based; details: 0.3-5.0 µM, 20 h
Excerpt: More typical of retinoic acid is its contribution to cell differentiation during vertebrate embryonic development by interacting with nuclear receptors, which bind to specific retinoid-responsive elements (RARE) within the promoters of subordinate genes, activating their transcription. To verify that retinoate 2 also binds to RARE, we used a reporter assay with F9 teratocarcinoma cells featuring a RARE located within the cis-acting regulatory sequences of the human retinoic acid receptor alpha gene and immediately upstream of the E. coli lacZ genes, which thus acquire retinoid responsivity. LacZ expression in cells treated with various concentrations of 2 was then quantitated by densitometric analysis of β-galactosidase activity visualized by X-Gal staining.
The F9 embryonal carcinoma cell line, stably transfected with the 1.8 kb promoter sequence of RARb2 coupled to the lacZ gene, was used to measure active retinoids. The assay is appropriate for detection of all-trans RA but is able to detect other retinoid isomers as well. The F9 reporter cells were maintained in 10% FCS containing DMEM in the presence of 400 ug/mL G418. A day before the assay, F9 cell were seeded onto 24-well plates (100,000 cell/well). The cells were than treated with various concentrations of 2. […]

Compound | IC50 [1] | apoptosis of U87 glioma cells (U87 glioma cells) | fading of the enone band in the presence of glutathione [2] | stability in cell medium ([3]; cell medium) | Detected compound 2 in medium ([3]; 0 h) | Detected free 1 in the sample of 2 ([3]; 0 h) | Detected free retinoic acid in the sample of 2 ([3]; 0 h) | Detected compound 2 in medium ([3]; 20 h) | Detected free 1 in the sample of 2 ([3]; 20 h) | Detected free retinoic acid in the sample of 2 ([3]; 20 h) | Detected compound 2 in medium ([3]; 48 h) | Detected free 1 in the sample of 2 ([3]; 48 h) | Detected free retinoic acid in the sample of 2 ([3]; 48 h) | Detected compound 2 in medium ([3]; 144 h) | Detected free 1 in the sample of 2 ([3]; 144 h) | Detected free retinoic acid in the sample of 2 ([3]; 144 h) | activation of F9 RARE-lacZ reporter cells (β-galactosidase, X-Gal staining) [4]
CC1=C2C(=CC(C)(C)[C@@H]2O)C(=O)[C@](C)(O)C12CC2 [Compound 1, illudin M] | 0.05 to 0.4 µM | – | – | – | – | – | – | – | – | – | – | – | – | – | – | – | –
CC1=C(/C=C/C(C)=C/C=C/C(C)=C/C(=O)O[C@@H]2C3=C(C)C4(CC4)[C@@](C)(O)C(=O)C3=CC2(C)C)C(C)(C)CCC1 [Compound 2, illudin M retinoate] | – | undergoing rapid apoptosis | stabilization of conjugate 2 compared with 1 | high stability | 3.92 µM | < 0.01 µM | < 0.01 µM | 3.98 µM | < 0.01 µM | < 0.01 µM | 3.85 µM | < 0.01 µM | < 0.01 µM | 3.94 µM | < 0.01 µM | < 0.01 µM | concentration-dependent activation
